In patent US9993494B2, “Compositions and methods for treating fibrotic disease” (eFFECTOR Therapeutics, Inc., priority 2014, dated 2018):

System: normal human lung fibroblasts
Experiment: Ribosomal profiling: translational efficiency in TGFβ-treated fibroblasts
Format: cell-based
Settings: TGFβ-treated fibroblasts
Summary of the method: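 Cells lysed on ice after a cold PBS wash containing cycloheximide. Ribosome-protected fragments and total mRNA were prepared with the ARTseq kit and sequenced by RNA-Seq. Reads were trimmed, mapped to the human genome and counted uniquely over coding regions per gene, with low-count genes excluded before differential translational-efficiency analysis.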

Structure (SMILES): CC(C=CC(=O)NO)=CC(C)C(=O)c1ccc(N(C)C)cc1 (stereo not drawn) [TSA, 7-[4-(dimethylamino)phenyl]-N-hydroxy-4,6-dimethyl-7-oxohepta-2,4-dienamide]
- effect in renormalizing the translational profile of the gene (gene RPS6 (ENSG00000137154)): − (− = <0.9)
- effect in renormalizing the translational profile of the gene (gene RPS6KA5 (ENSG00000100784)): − (− = <0.9)
- effect in renormalizing the translational profile of the gene (gene RPS7 (ENSG00000171863)): − (− = <0.9)
- effect in renormalizing the translational profile of the gene (gene RPS8 (ENSG00000142937)): − (− = <0.9)
- effect in renormalizing the translational profile of the gene (gene RPS9 (ENSG00000170889)): − (− = <0.9)
- effect in renormalizing the translational profile of the gene (gene RPS10 (ENSG00000124614)): − (− = <0.9)
- effect in renormalizing the translational profile of the gene (gene RPS11 (ENSG00000142534)): − (− = <0.9)
- effect in renormalizing the translational profile of the gene (gene RPS12 (ENSG00000112306)): − (− = <0.9)
- effect in renormalizing the translational profile of the gene (gene RPS13 (ENSG00000110700)): − (− = <0.9)
- effect in renormalizing the translational profile of the gene (gene RPS14 (ENSG00000164587)): − (− = <0.9)
- effect in renormalizing the translational profile of the gene (gene RPS15 (ENSG00000115268)): − (− = <0.9)
- effect in renormalizing the translational profile of the gene (gene RPS15A (ENSG00000134419)): − (− = <0.9)
- effect in renormalizing the translational profile of the gene (gene RPS16 (ENSG00000105193)): − (− = <0.9)
- effect in renormalizing the translational profile of the gene (gene RPS18 (ENSG00000231500)): − (− = <0.9)
- effect in renormalizing the translational profile of the gene (gene RPS19 (ENSG00000105372)): − (− = <0.9)
- effect in renormalizing the translational profile of the gene (gene RPS20 (ENSG00000008988)): − (− = <0.9)
- effect in renormalizing the translational profile of the gene (gene RPS21 (ENSG00000171858)): − (− = <0.9)
- effect in renormalizing the translational profile of the gene (gene RPS23 (ENSG00000186468)): − (− = <0.9)
- effect in renormalizing the translational profile of the gene (gene RPS24 (ENSG00000138326)): − (− = <0.9)
- effect in renormalizing the translational profile of the gene (gene RPS25 (ENSG00000118181)): − (− = <0.9)
- effect in renormalizing the translational profile of the gene (gene RPS26 (ENSG00000197728)): − (− = <0.9)
- effect in renormalizing the translational profile of the gene (gene RPS27 (ENSG00000177954)): − (− = <0.9)
- effect in renormalizing the translational profile of the gene (gene RPS27A (ENSG00000143947)): − (− = <0.9)
- effect in renormalizing the translational profile of the gene (gene RPS28 (ENSG00000233927)): − (− = <0.9)
- effect in renormalizing the translational profile of the gene (gene RPS29 (ENSG00000213741)): − (− = <0.9)
- effect in renormalizing the translational profile of the gene (gene RPSA (ENSG00000168028)): − (− = <0.9)
- effect in renormalizing the translational profile of the gene (gene RTN2 (ENSG00000125744)): − (− = <0.9)
- effect in renormalizing the translational profile of the gene (gene SEMA3A (ENSG00000075213)): − (− = <0.9)
- effect in renormalizing the translational profile of the gene (gene SGIP1 (ENSG00000118473)): − (− = <0.9)
- effect in renormalizing the translational profile of the gene (gene SH3BGR (ENSG00000185437)): − (− = <0.9)
- effect in renormalizing the translational profile of the gene (gene SHC3 (ENSG00000148082)): + (+ = 0.9 to 1.5)
- effect in renormalizing the translational profile of the gene (gene SLC2A12 (ENSG00000146411)): − (− = <0.9)
- effect in renormalizing the translational profile of the gene (gene SLC7A7 (ENSG00000155465)): − (− = <0.9)
- effect in renormalizing the translational profile of the gene (gene SLC15A3 (ENSG00000110446)): ++ (++ = 1.5 to 2.0)
- effect in renormalizing the translational profile of the gene (gene SLC25A6 (ENSG00000169100)): − (− = <0.9)
- effect in renormalizing the translational profile of the gene (gene SLC40A1 (ENSG00000138449)): + (+ = 0.9 to 1.5)
- effect in renormalizing the translational profile of the gene (gene SMO (ENSG00000128602)): − (− = <0.9)
- effect in renormalizing the translational profile of the gene (gene SNRPA (ENSG00000077312)): − (− = <0.9)
- effect in renormalizing the translational profile of the gene (gene SOX5 (ENSG00000134532)): + (+ = 0.9 to 1.5)
- effect in renormalizing the translational profile of the gene (gene SOX6 (ENSG00000110693)): − (− = <0.9)
- effect in renormalizing the translational profile of the gene (gene SPATA6 (ENSG00000132122)): − (− = <0.9)
- effect in renormalizing the translational profile of the gene (gene STAMBPL1 (ENSG00000138134)): + (+ = 0.9 to 1.5)
- effect in renormalizing the translational profile of the gene (gene STS (ENSG00000101846)): − (− = <0.9)
- effect in renormalizing the translational profile of the gene (gene SYNE2 (ENSG00000054654)): − (− = <0.9)
- effect in renormalizing the translational profile of the gene (gene TAF1D (ENSG00000166012)): + (+ = 0.9 to 1.5)
- effect in renormalizing the translational profile of the gene (gene TDG (ENSG00000139372)): − (− = <0.9)
- effect in renormalizing the translational profile of the gene (gene TEN1 (ENSG00000257949)): − (− = <0.9)
- effect in renormalizing the translational profile of the gene (gene TET2 (ENSG00000168769)): − (− = <0.9)
- effect in renormalizing the translational profile of the gene (gene TET3 (ENSG00000187605)): − (− = <0.9)
- effect in renormalizing the translational profile of the gene (gene TGFBI (ENSG00000120708)): − (− = <0.9)
- effect in renormalizing the translational profile of the gene (gene THBS3 (ENSG00000169231)): − (− = <0.9)
- effect in renormalizing the translational profile of the gene (gene THG1L (ENSG00000113272)): − (− = <0.9)
- effect in renormalizing the translational profile of the gene (gene TIMM9 (ENSG00000100575)): − (− = <0.9)
- effect in renormalizing the translational profile of the gene (gene TKT (ENSG00000163931)): − (− = <0.9)
- effect in renormalizing the translational profile of the gene (gene TMTC1 (ENSG00000133687)): + (+ = 0.9 to 1.5)
- effect in renormalizing the translational profile of the gene (gene TOMM7 (ENSG00000196683)): − (− = <0.9)
- effect in renormalizing the translational profile of the gene (gene TOP2A (ENSG00000131747)): − (− = <0.9)
- effect in renormalizing the translational profile of the gene (gene TPGS1 (ENSG00000141933)): − (− = <0.9)
- effect in renormalizing the translational profile of the gene (gene TPM2 (ENSG00000198467)): − (− = <0.9)
- effect in renormalizing the translational profile of the gene (gene TPT1 (ENSG00000133112)): − (− = <0.9)
- effect in renormalizing the translational profile of the gene (gene TRERF1 (ENSG00000124496)): − (− = <0.9)
- effect in renormalizing the translational profile of the gene (gene UBA52 (ENSG00000221983)): − (− = <0.9)
- effect in renormalizing the translational profile of the gene (gene UQCRB (ENSG00000156467)): − (− = <0.9)
- effect in renormalizing the translational profile of the gene (gene UTRN (ENSG00000152818)): − (− = <0.9)
- effect in renormalizing the translational profile of the gene (gene VIM (ENSG00000026025)): − (− = <0.9)
- effect in renormalizing the translational profile of the gene (gene ZNF581 (ENSG00000171425)): − (− = <0.9)
